Assay results from patent publication US12281095B2, “Pesticidally active diazine-amide compounds” (SYNGENTA CROP PROTECTION AG, priority 2019, dated 2025).

Legend:
Type in all cases: in vivo
[1] = system: Myzus persicae (Green Peach Aphid); test: Example B12: Myzus persicae (Green Peach Aphid), 96-well sucrose solution; settings: 120 h, application rate of 50 ppm, 5 days after infestation
Description: Example B12: Myzus persicae (Green Peach Aphid)
Test compounds prepared from 10′000 ppm DMSO stock solutions were applied by a liquid handling robot into 96-well microtiter plates and mixed with a sucrose solution. Parafilm was stretched over the 96-well microtiter plate and a plastic stencil with 96 holes was placed onto the plate. Aphids were sieved into the wells directly onto the Parafilm. The infested plates were closed with a gel blotting card and a second plastic stencil and then turned upside down. The samples were assessed for mortality 5 days after infestation.

[2] = system: Diabrotica balteata (Corn Root Worm); test: Example B1: Diabrotica balteata (Corn Root Worm), sprayed maize sprouts; settings: 96 h, application rate of 200 ppm, L2 larvae, 4 days after infestation, read-out: control in at least one of the two categories (mortality or growth inhibition)
Experimental: Example B1: Diabrotica balteata (Corn Root Worm)
Maize sprouts placed onto an agar layer in 24-well microtiter plates were treated with aqueous test solutions prepared from 10′000 ppm DMSO stock solutions by spraying. After drying, the plates were infested with L2 larvae (6 to 10 per well). The samples were assessed for mortality and growth inhibition in comparison to untreated samples 4 days after infestation.

[3] = system: Euschistus heros (Neotropical Brown Stink Bug); test: Example B2: Euschistus heros (Neotropical Brown Stink Bug), sprayed soybean leaves; settings: 120 h, application rate of 200 ppm, N2 nymphs, 5 days after infestation, read-out: control in at least one of the two categories (mortality or growth inhibition)
Experimental: Example B2: Euschistus heros (Neotropical Brown Stink Bug)
Soybean leaves on agar in 24-well microtiter plates were sprayed with aqueous test solutions prepared from 10′000 ppm DMSO stock solutions. After drying the leaves were infested with N2 nymphs. The samples were assessed for mortality and growth inhibition in comparison to untreated samples 5 days after infestation.

[4] = system: Plutella xylostella (Diamond Back Moth); test: Example B5: Plutella xylostella (Diamond Back Moth), artificial diet, 24-well; settings: 192 h, application rate of 200 ppm, eggs, 8 days after infestation, read-out: control in at least one of the two categories (mortality or growth inhibition)
Experimental: Example B5: Plutella xylostella (Diamond Back Moth)
24-well microtiter plates with artificial diet were treated with aqueous test solutions prepared from 10′000 ppm DMSO stock solutions by pipetting. After drying, Plutella eggs were pipetted through a plastic stencil onto a gel blotting paper and the plate was closed with it. The samples were assessed for mortality and growth inhibition in comparison to untreated samples 8 days after infestation.

[5] = system: Plutella xylostella (Diamondback Moth); test: Example B13: Plutella xylostella (Diamondback Moth), artificial diet, 96-well; settings: 216 h, application rate of 500 ppm, eggs/L1 larvae, 9 days after infestation
Experimental: Example B13: Plutella xylostella (Diamondback Moth)
96-well microtiter plates containing artificial diet were treated with aqueous test solutions, prepared from 10′000 ppm DMSO stock solutions, by a liquid handling robot. After drying, eggs (˜30 per well) were infested onto a netted lid which was suspended above the diet. The eggs hatch and L1 larvae move down to the diet. The samples were assessed for mortality 9 days after infestation.

[6] = system: Myzus persicae (Green Peach Aphid); test: Example B8: Myzus persicae (Green Peach Aphid): Intrinsic Activity; settings: 120 h, test rate of 12 ppm, sucrose solution, 5 days after infestation
Description: Example B8: Myzus persicae (Green Peach Aphid): Intrinsic Activity
Test compounds prepared from 10′000 ppm DMSO stock solutions were applied by pipette into 24-well microtiter plates and mixed with sucrose solution. The plates were closed with a stretched Parafilm. A plastic stencil with 24 holes was placed onto the plate and infested pea seedlings were placed directly on the Parafilm. The infested plate was closed with a gel blotting paper and another plastic stencil and then turned upside down. The samples were assessed for mortality 5 days after infestation.

[7] = system: Spodoptera littoralis (Egyptian Cotton Leaf Worm); test: Example B10: Spodoptera littoralis (Egyptian Cotton Leaf Worm), uptake by lettuce roots from agar; settings: 144 h, test rate of 12.5 ppm, compound absorbed by lettuce roots, eggs, 6 days after infestation, read-out: control in at least one of the three categories (mortality, anti-feeding, or growth inhibition)
Description: Example B10: Spodoptera littoralis (Egyptian Cotton Leaf Worm)
Test compounds were applied by pipette from 10′000 ppm DMSO stock solutions into 24-well plates and mixed with agar. Lettuce seeds were placed onto the agar and the multi well plate was closed by another plate which contained also agar. After 7 days the compound was absorbed by the roots and the lettuce grew into the lid plate. The lettuce leaves were then cut off into the lid plate. Spodoptera eggs were pipetted through a plastic stencil onto a humid gel blotting paper and the lid plate was closed with it. The samples were assessed for mortality, anti-feedant effect and growth inhibition in comparison to untreated samples 6 days after infestation.

[8] = system: Spodoptera littoralis (Egyptian Cotton Leaf Worm); test: Example B9: Spodoptera littoralis (Egyptian Cotton Leaf Worm), sprayed cotton leaf discs; settings: foliar, 72 h, application rate of 200 ppm, L1 larvae, 3 days after infestation, read-out: control in at least one of the three categories (mortality, anti-feedant or growth inhibition)
[9] = system: Chilo suppressalis (Striped Rice Stemborer); test: Example B4: Chilo suppressalis (Striped Rice Stemborer), artificial diet; settings: 144 h, application rate of 200 ppm, L2 larvae, 6 days after infestation, read-out: control in at least one of the three categories (mortality, anti-feedant or growth inhibition)
Outline: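 Artificial diet was treated with aqueous dilutions made from 10'000 ppm DMSO stocks, dried, then infested with L2 larvae at 6–8 per well. Mortality, antifeedant effect and growth inhibition were assessed against untreated samples 6 days after infestation.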

CC(NC(=O)c1cc(C(F)(F)F)nc(C2(C#N)CC2)c1)c1nccnc1-c1ncc(OCC(F)F)cn1 (stereo not drawn) [P40, 2-(1-cyanocyclopropyl)-N-[1-[3-[5-(2,2-difluoroethoxy)pyrimidin-2-yl]pyrazin-2-yl]ethyl]-6-(trifluoromethyl)pyridine-4-carboxamide]
≥ 80%: mortality at 50 ppm [1] | percent control (mortality or growth inhibition) at 200 ppm [2] | percent control (mortality or growth inhibition) at 200 ppm [3] | percent control (mortality or growth inhibition) at 200 ppm [4] | mortality at 500 ppm [5] | mortality at 12 ppm [6] | percent control (mortality, anti-feeding or growth inhibition) at 12.5 ppm [7] | percent control (mortality, anti-feedant effect or growth inhibition) at 200 ppm [8] | percent control (mortality, anti-feedant effect or growth inhibition) at 200 ppm [9]

CC(NC(=O)c1cc(C(F)(F)F)cc(C2(C#N)CC2)c1)c1nccnc1-c1ncc(OCC(F)(F)F)cn1 (stereo not drawn) [P2, 3-(1-cyanocyclopropyl)-N-[1-[3-[5-(2,2,2-trifluoroethoxy)pyrimidin-2-yl]pyrazin-2-yl]ethyl]-5-(trifluoromethyl)benzamide]
≥ 80%: percent control (mortality or growth inhibition) at 200 ppm [2] | percent control (mortality or growth inhibition) at 200 ppm [3] | percent control (mortality or growth inhibition) at 200 ppm [4] | mortality at 12 ppm [6] | percent control (mortality, anti-feedant effect or growth inhibition) at 200 ppm [8] | percent control (mortality, anti-feedant effect or growth inhibition) at 200 ppm [9]

CC(NC(=O)c1cc(C(F)(F)F)cc(C(C)(C)C#N)c1)c1nccnc1-c1ccc(C#N)cn1 (stereo not drawn) [P9, 3-(1-cyano-1-methyl-ethyl)-N-[1-[3-(5-cyano-2-pyridyl)pyrazin-2-yl]ethyl]-5-(trifluoromethyl)benzamide]
≥ 80%: percent control (mortality or growth inhibition) at 200 ppm [2] | percent control (mortality or growth inhibition) at 200 ppm [4] | mortality at 12 ppm [6] | percent control (mortality, anti-feedant effect or growth inhibition) at 200 ppm [8] | percent control (mortality, anti-feedant effect or growth inhibition) at 200 ppm [9]

CC(NC(=O)c1cc(C(F)(F)F)nc(C2(C#N)CC2)c1)c1nccnc1-c1ncc(OC(F)F)cn1 (stereo not drawn) [P36, 2-(1-cyanocyclopropyl)-N-[1-[3-[5-(difluoromethoxy)pyrimidin-2-yl]pyrazin-2-yl]ethyl]-6-(trifluoromethyl)pyridine-4-carboxamide]
≥ 80%: mortality at 50 ppm [1] | percent control (mortality or growth inhibition) at 200 ppm [2] | percent control (mortality or growth inhibition) at 200 ppm [3] | percent control (mortality or growth inhibition) at 200 ppm [4] | mortality at 500 ppm [5] | percent control (mortality, anti-feeding or growth inhibition) at 12.5 ppm [7] | percent control (mortality, anti-feedant effect or growth inhibition) at 200 ppm [8] | percent control (mortality, anti-feedant effect or growth inhibition) at 200 ppm [9]

CC(NC(=O)c1cc(C(F)(F)F)cc(S(=O)(=O)C(F)(F)F)c1)c1nccnc1-c1ncc(OCC(F)F)cn1 (stereo not drawn) [P28, N-[1-[3-[5-(2,2-difluoroethoxy)pyrimidin-2-yl]pyrazin-2-yl]ethyl]-3-(trifluoromethyl)-5-(trifluoromethylsulfonyl)benzamide]
≥ 80%: percent control (mortality or growth inhibition) at 200 ppm [2] | percent control (mortality or growth inhibition) at 200 ppm [3] | percent control (mortality or growth inhibition) at 200 ppm [4] | mortality at 500 ppm [5] | percent control (mortality, anti-feedant effect or growth inhibition) at 200 ppm [8] | percent control (mortality, anti-feedant effect or growth inhibition) at 200 ppm [9]

CC(NC(=O)c1cc(C(F)(F)F)cc(C2(C#N)CC2)c1)c1nccnc1-c1ccc(C#N)cn1 (stereo not drawn) [P25, 3-(1-cyanocyclopropyl)-N-[1-[3-(5-cyano-2-pyridyl)pyrazin-2-yl]eth-yl]-5-(trifluoromethyl)benzamide]
≥ 80%: mortality at 50 ppm [1] | percent control (mortality or growth inhibition) at 200 ppm [2] | percent control (mortality or growth inhibition) at 200 ppm [4] | mortality at 500 ppm [5] | percent control (mortality, anti-feedant effect or growth inhibition) at 200 ppm [8] | percent control (mortality, anti-feedant effect or growth inhibition) at 200 ppm [9]

CC(NC(=O)c1cc(C(F)(F)F)cc(C(F)(F)C2CC2)c1)c1nccnc1-c1ncc(OC(F)F)cn1 (stereo not drawn) [P29, 3-[cyclopropyl(difluoro)methyl]-N-[1-[3-[5-(difluoromethoxy)pyrimidin-2-yl]pyrazin-2-yl]ethyl]-5-(trifluoromethyl)benzamide]
≥ 80%: percent control (mortality or growth inhibition) at 200 ppm [2] | percent control (mortality or growth inhibition) at 200 ppm [3] | percent control (mortality or growth inhibition) at 200 ppm [4] | mortality at 500 ppm [5] | percent control (mortality, anti-feedant effect or growth inhibition) at 200 ppm [8] | percent control (mortality, anti-feedant effect or growth inhibition) at 200 ppm [9]

CC(NC(=O)c1cc(C2CC2)cc(C(F)(F)F)c1)c1nccnc1-c1ncc(OCC(F)F)cn1 (stereo not drawn) [P37, 3-cyclopropyl-N-[1-[3-[5-(2,2-difluoroethoxy)pyrimidin-2-yl]pyrazin-2-yl]ethyl]-5-(trifluoromethyl)benzamide]
≥ 80%: percent control (mortality or growth inhibition) at 200 ppm [2] | percent control (mortality or growth inhibition) at 200 ppm [4] | mortality at 500 ppm [5] | mortality at 12 ppm [6] | percent control (mortality, anti-feedant effect or growth inhibition) at 200 ppm [8] | percent control (mortality, anti-feedant effect or growth inhibition) at 200 ppm [9]

CC(NC(=O)c1cc(C(F)(F)F)cc(C(C)(C)C#N)c1)c1nccnc1-c1ncc(OCC(F)(F)F)cn1 (stereo not drawn) [P47, 3-(1-cyano-1-methyl-ethyl)-N-[1-[3-[5-(2,2,2-trifluoroethoxy)pyrimidin-2-yl]pyrazin-2-yl]ethyl]-5-(trifluoromethyl)benzamide]
≥ 80%: percent control (mortality or growth inhibition) at 200 ppm [2] | percent control (mortality or growth inhibition) at 200 ppm [3] | percent control (mortality or growth inhibition) at 200 ppm [4] | mortality at 12 ppm [6] | percent control (mortality, anti-feedant effect or growth inhibition) at 200 ppm [8] | percent control (mortality, anti-feedant effect or growth inhibition) at 200 ppm [9]

CC(NC(=O)c1cc(C(F)(F)F)cc(C2(C#N)CC2)c1)c1nccnc1-c1ccc(OCC(F)(F)F)cn1 (stereo not drawn) [P24, 3-(1-cyanocyclopropyl)-N-[1-[3-[5-(2,2,2-trifluoroethoxy)-2-pyridyl]pyrazin-2-yl]ethyl]-5-(trifluoromethyl)benzamide]
≥ 80%: percent control (mortality or growth inhibition) at 200 ppm [2] | percent control (mortality or growth inhibition) at 200 ppm [4] | mortality at 500 ppm [5] | percent control (mortality, anti-feedant effect or growth inhibition) at 200 ppm [8] | percent control (mortality, anti-feedant effect or growth inhibition) at 200 ppm [9]
